# Test results taken from US4880820A, “Guanine derivatives” (Merck & Co., Inc., priority 1988, dated 1989).
# “Also recorded” adds a separate entry of the source.
# Experiments:
# [1] = tested on: Herpes simplex virus Type 1 (Schooler); assay: Method 1: inhibition of viral induced cytopathology in primary rabbit kidney cell cultures, HSV-1; type: cell-based; conditions: Human alphaherpesvirus 1; HSV-1 (Schooler), primary rabbit kidney cells; total suppression of cytopathology in 50% of cultures; read-out: Minimum Effective Concentration
# Procedure: (§1) Method 1: Confluent monolayers of primary rabbit kidney cell cultures were refed with maintenance medium containing serial dilutions of the test compounds and incubated overnight at 37° C. At each dilution, four cultures were challenged with approximately 10 TCID50 HSV-1, four cultures were challenged with approximately 10 TCID50 HSV-2,and two cultures were left as toxicity controls. Cultures were reincubated at 37° C. and observed for viral induced cytopathology at days 5 and 7. Minimum Effective Concentration (μg/ml) is defined as the concentration of antiviral compound required to totally suppress the development of viral cytopathology in 50% of the infected rabbit kidney cell cultures.
# [2] = tested on: Herpes simplex virus Type 2 (Curtis); assay: Method 1: inhibition of viral induced cytopathology in primary rabbit kidney cell cultures, HSV-2; type: cell-based; conditions: Human alphaherpesvirus 2; HSV-2 (Curtis), primary rabbit kidney cells; total suppression of cytopathology in 50% of cultures; read-out: Minimum Effective Concentration
# Procedure: as §1
# [3] = tested on: Herpes simplex virus Type 1 (Schooler); assay: Method 2: virus plaque reduction in MRC-5 cells, HSV-1; type: cell-based
# Procedure: Method 2: Confluent monolayers of MRC-5 cells were incubated for one hour at 37° C. with 50-100 plaque forming units of the indicated virus. Following incubation, the cell monolayers were refed with maintenance medium containing 2% methyl cellulose and the chemical agent indicated. Duplicate cultures were incubated with each concentration of the chemical agent tested. Following further incubation for 3 days at 37° C., the monolayers were stained and the developed virus plaques were counted. The concentration (μg/ml) of each chemical agent which reduced plaque development by 50% (ED50) was determined.
# [4] = tested on: Herpes simplex virus type 1 (HSV-1), strain Schooler; assay: Parenteral (subcutaneous) treatment of Herpes simplex virus type 1 infection in mice; type: in vivo, ICR/Ha mice; conditions: for Avg. Survival Time / Percent Survival: s.c.
# Procedure: (§2) Twenty gram ICR/Ha mice were injected intraperitoneally (ip) with 0.5 ml of a 10^-5 dilution of a stock preparation of Herpes simplex virus type 1 (HSV-1), strain Schooler. This virus challenge infected each animal with approximately 50 to 100 LD50. Starting immediately after virus infection and continuing twice daily for 4 days, each animal was injected subcutaneously in groups of 10 with: 125 μg, 31 μg, 8 μg or 2 μg of compounds A, B or C; or placebo (physiological saline, pH 11.5). All compounds were solubilized in physiological saline, pH 11.5. The mice were observed daily for 15 days at the same time each day and the day of death was recorded for each animal.
# Statistical analyses [reference: Liddel, F.D.K., Evaluation of Survival in Challenge Experiments, Microbiol. Rev., 42, 237 (1978)]were performed on survival times transformed by the negative exponential transformation:
# t=number of days an animal survived
# T=duration of trial (15 days)
# A continuity correction was used to account for daily observation:
# Within each group, mice surviving through the trial period were assigned equally values of 0.9 and 1.0 to adjust for termination of the trial.
# Average survival time per group was calculated from average corrected transformed survival times [fc (t)] as follows:
# t avg=[T/log(0.1).[log(1-fc (t)]
# [5] = tested on: Herpes simplex virus type 1 (HSV-1), strain Schooler; assay: Oral treatment of intraperitoneal HSV-1 infection of mice (Example 16); type: in vivo, ICR/Ha mice
# Procedure: as §2, with “(i.p.)” for “(ip)”, “LD50 s.” for “LD50.”, “7” for “4”, “treated by oral gavage” for “injected subcutaneously”, “with: 250 μg, 125 μg, 8 μg or 2 μg of (S)-9-(2,3-dihydroxy-1-propoxymethyl)guanine; 500 μg,” for “with:”, “racemic 9-(2,3-dihydroxy-1-propoxymethyl)guanine;” for “compounds A, B or C;”
# (§3) The statistical analyses were carried out as described in Example 15.
# [6] = tested on: Herpes simplex virus type 1 (HSV-1), strain Schooler; assay: Oral treatment of intraperitoneal HSV-1 infection of mice (Example 17); type: in vivo, ICR/Ha mice; conditions: for Percent Survival: at 15 days
# Procedure: Twenty gram ICR/Ha mice were injected intraperitoneally (i.p.) with 0.5 ml of a 10^-5 dilution of a stock preparation of Herpes Simplex virus type 1 (HSV-1), strain Schooler. This virus challenge infected mice with approximately 50 to 100 LD50. Starting immediately after virus infection and continuing twice daily for 7 days, each animal was treated by oral gavage in groups of 10 with: 500 μg, 125 μg, 31 μg or 8 μg of (S)-9-(2,3-dihydroxy-1propoxymethyl)guanine; 500 μg, 125 μg, 31 μg or 8 μg of acyclovir or placebo (physiological saline, pH 11.5). All compounds were solubilized in physiological saline, pH 11.5.
# as §3
# [7] = tested on: herpes viruses; assay: antiviral activity against herpes viruses (general statement)
# [8] = 125 μg/dose twice daily for 7 days, 12.5 mg/kg/day
# [9] = 500 μg/dose twice daily for 7 days, 50 mg/kg/day
smiles,measurement,setting,value
"Nc1nc2c(ncn2COC[C@@H](O)CO)c(=O)[nH]1 [A, (S)-9-(2,3-dihydroxy-1-propoxymethyl)guanine]",minimal effective concentration,[1],0.8 to 1.5 µg/mL
same,minimal effective concentration,[2],3.1 µg/mL
same,fold more effective than B in protecting cell cultures against HSV-1 infection,"[3]; A vs B, conclusion of Example 14 (Methods 1 and 2)",10 to 25 fold
same,fold more active than C in protecting cell cultures against HSV-1 infection,"[3]; A vs C, conclusion of Example 14 (Methods 1 and 2)",about 2 fold
same,EC50,"[3]; Human alphaherpesvirus 1, MRC5, 72 h, HSV-1 (Schooler), MRC-5 cells, 3 days, 50% reduction of plaque development, read-out: ED50 (the source's name)",0.5 µg/mL
same,relative potency of A to C,"[4]; parallel line analysis, not statistically significant",2.3
same,relative potency of A to B,"[4]; parallel line analysis, statistically significant",5.3
same,Avg. Survival Time,"[4]; 2 μg/dose twice daily for 4 days, 0.2 mg/kg/day, ^3 (all): not statistically different from placebo",6.1 days
same,Percent Survival,"[4]; 2 μg/dose twice daily for 4 days, 0.2 mg/kg/day, at 15 days",0%
same,Avg. Survival Time,"[4]; 8 μg/dose twice daily for 4 days, 0.8 mg/kg/day, ^3 (all): not statistically different from placebo",6.7 days
same,Percent Survival,"[4]; 8 μg/dose twice daily for 4 days, 0.8 mg/kg/day, at 15 days",0%
same,Avg. Survival Time,"[4]; 31 μg/dose twice daily for 4 days, 3.1 mg/kg/day, ^3 (all): not statistically different from placebo",7.6 days
same,Percent Survival,"[4]; 31 μg/dose twice daily for 4 days, 3.1 mg/kg/day, at 15 days",10%
same,Avg. Survival Time,"[4]; 125 μg/dose twice daily for 4 days, 12.5 mg/kg/day, ^3 (B, acyclovir): not statistically different from placebo",10.7 days
same,Percent Survival,"[4]; 125 μg/dose twice daily for 4 days, 12.5 mg/kg/day, at 15 days (acyclovir not at the same time)",40%
same,Avg. Survival Time,"[5]; 2 μg/dose twice daily for 7 days, 0.2 mg/kg/day, ^3 (all): not statistically different from placebo",7.2 days
same,Percent Survival,"[5]; 2 μg/dose twice daily for 7 days, 0.2 mg/kg/day, at 15 days",0%
same,Avg. Survival Time,"[5]; 8 μg/dose twice daily for 7 days, 0.8 mg/kg/day, ^3 (all): not statistically different from placebo",7.2 days
same,Percent Survival,"[5]; 8 μg/dose twice daily for 7 days, 0.8 mg/kg/day, at 15 days",0%
same,Avg. Survival Time,"[5]; 31 μg/dose twice daily for 7 days, 3.1 mg/kg/day, ^3 (all): not statistically different from placebo",7.5 days
same,Percent Survival,"[5]; 31 μg/dose twice daily for 7 days, 3.1 mg/kg/day, at 15 days (acyclovir not at the same time)",0%
same,Avg. Survival Time,"[5]; 125 μg/dose twice daily for 7 days, 12.5 mg/kg/day, ^3 (racemate, acyclovir): not statistically different from placebo",10.2 days
same,Percent Survival,"[5]; 125 μg/dose twice daily for 7 days, 12.5 mg/kg/day, at 15 days (acyclovir not at the same time)",20%
same,Avg. Survival Time,"[5]; 250 μg/dose twice daily for 7 days, 25 mg/kg/day",9.8 days
same,Percent Survival,"[5]; 250 μg/dose twice daily for 7 days, 25 mg/kg/day, at 15 days",10%
same,"protection over placebo-treated animals, as measured by average survival time",[5]; 12.5 mg/kg/day,conferred significant protection over placebo-treated animals
same,"protection over placebo-treated animals, as measured by average survival time",[5]; 25 mg/kg/day,conferred significant protection over placebo-treated animals
same,Avg. Survival Time,"[6]; 8 μg/dose twice daily for 7 days, 0.8 mg/kg/day, ^b (all): not statistically different from placebo",6.2 days
same,Percent Survival,"[6]; 8 μg/dose twice daily for 7 days, 0.8 mg/kg/day",0%
same,Avg. Survival Time,"[6]; 31 μg/dose twice daily for 7 days, 3.1 mg/kg/day, ^b (all): not statistically different from placebo",6.9 days
same,Percent Survival,"[6]; 31 μg/dose twice daily for 7 days, 3.1 mg/kg/day",0%
same,Avg. Survival Time,[6]; [8],8.1 days
same,Percent Survival,[6]; [8],0%
same,Avg. Survival Time,[6]; [9],12.9 days
same,Percent Survival,[6]; [9],30%
same,"protection over placebo-treated animals, as measured by average survival time",[6]; 12.5 mg/kg/day,conferred significant protection over placebo-treated animals
same,"protection over placebo-treated animals, as measured by average survival time",[6]; 50 mg/kg/day,conferred significant protection over placebo-treated animals
same,relative potency to acyclovir,[6]; statistically significant,2.8
same,antiviral (antiherpetic) activity,[7]; general statement in words,substantial antiviral activity against various herpes viruses; also recorded: potent antiherpetic activity
same,antiviral (antiherpetic) activity compared with acyclovir,[7]; vs 9-(2-hydroxyethoxymethyl)guanine (acyclovir),significantly greater antiviral activity; also recorded: much more potent
same,antiherpetic activity compared with the racemic mixture or the (R)-enantiomer,[7]; vs racemic mixture or (R)-enantiomer,better than the corresponding racemic mixture or the (R)-enantiomer
